Assay results as given in ChEMBL document CHEMBL2069178, “A combined targeted/phenotypic approach for the identification of new antiangiogenics agents active on a zebrafish model: from in silico screening to cyclodextrin formulation” (Bioorg Med Chem Lett, 2012).
Each block holds one compound with its values, some of them ahead of it. Active and inactive are the calls of the source. The rule behind the calls is not given here.

Assays:
HUVEC [1] = test: Antiangiogenic activity in HUVEC co-cultured with vascular smooth muscle cells assessed as inhibition of network formation at 10 to 15 uM after 72 hrs; format: functional, cell-based; conditions: Homo sapiens
HUVEC [2] = test: Antiangiogenic activity in HUVEC co-cultured with vascular smooth muscle cells assessed as inhibition of network formation at 1.8 after 72 hrs; format: functional, cell-based; conditions: Homo sapiens
HUVEC [3] = test: Antiangiogenic activity in HUVEC co-cultured with vascular smooth muscle cells assessed as inhibition of cell growth at […] after 72 hrs; format: functional, cell-based; conditions: Homo sapiens
HUVEC [4] = test: Antiangiogenic activity in HUVEC co-cultured with vascular smooth muscle cells assessed as inhibition of network formation at […] after 72 hrs; format: functional, cell-based; conditions: Homo sapiens
HUVEC [5] = test: Cytotoxicity against HUVEC co-cultured with vascular smooth muscle cells assessed as cell death at 16 uM; format: cell-based; conditions: human
HUVEC [6] = test: Antiangiogenic activity in HUVEC co-cultured with vascular smooth muscle cells assessed as inhibition of network formation at 1.8 to 15 uM after 72 hrs; format: functional, cell-based; conditions: Homo sapiens
HUVEC [7] = test: Antiangiogenic activity in HUVEC co-cultured with vascular smooth muscle cells assessed as inhibition of network formation at 1.8 to 16 uM after 72 hrs; format: functional, cell-based; conditions: Homo sapiens
HUVEC [8] = test: Cytotoxicity against HUVEC co-cultured with vascular smooth muscle cells assessed as rounded-up, unconnected and unicellular morphology phenotype; format: cell-based; conditions: human
[9] = biological target: T1, Vascular endothelial growth factor receptor 2 (Homo sapiens, UniProt P35968); test: Inhibition of VEGFR2 expressed in porcine aortic endothelial cells; format: cell-based, Endothelial cell
T1 sequence (P35968 whole entry): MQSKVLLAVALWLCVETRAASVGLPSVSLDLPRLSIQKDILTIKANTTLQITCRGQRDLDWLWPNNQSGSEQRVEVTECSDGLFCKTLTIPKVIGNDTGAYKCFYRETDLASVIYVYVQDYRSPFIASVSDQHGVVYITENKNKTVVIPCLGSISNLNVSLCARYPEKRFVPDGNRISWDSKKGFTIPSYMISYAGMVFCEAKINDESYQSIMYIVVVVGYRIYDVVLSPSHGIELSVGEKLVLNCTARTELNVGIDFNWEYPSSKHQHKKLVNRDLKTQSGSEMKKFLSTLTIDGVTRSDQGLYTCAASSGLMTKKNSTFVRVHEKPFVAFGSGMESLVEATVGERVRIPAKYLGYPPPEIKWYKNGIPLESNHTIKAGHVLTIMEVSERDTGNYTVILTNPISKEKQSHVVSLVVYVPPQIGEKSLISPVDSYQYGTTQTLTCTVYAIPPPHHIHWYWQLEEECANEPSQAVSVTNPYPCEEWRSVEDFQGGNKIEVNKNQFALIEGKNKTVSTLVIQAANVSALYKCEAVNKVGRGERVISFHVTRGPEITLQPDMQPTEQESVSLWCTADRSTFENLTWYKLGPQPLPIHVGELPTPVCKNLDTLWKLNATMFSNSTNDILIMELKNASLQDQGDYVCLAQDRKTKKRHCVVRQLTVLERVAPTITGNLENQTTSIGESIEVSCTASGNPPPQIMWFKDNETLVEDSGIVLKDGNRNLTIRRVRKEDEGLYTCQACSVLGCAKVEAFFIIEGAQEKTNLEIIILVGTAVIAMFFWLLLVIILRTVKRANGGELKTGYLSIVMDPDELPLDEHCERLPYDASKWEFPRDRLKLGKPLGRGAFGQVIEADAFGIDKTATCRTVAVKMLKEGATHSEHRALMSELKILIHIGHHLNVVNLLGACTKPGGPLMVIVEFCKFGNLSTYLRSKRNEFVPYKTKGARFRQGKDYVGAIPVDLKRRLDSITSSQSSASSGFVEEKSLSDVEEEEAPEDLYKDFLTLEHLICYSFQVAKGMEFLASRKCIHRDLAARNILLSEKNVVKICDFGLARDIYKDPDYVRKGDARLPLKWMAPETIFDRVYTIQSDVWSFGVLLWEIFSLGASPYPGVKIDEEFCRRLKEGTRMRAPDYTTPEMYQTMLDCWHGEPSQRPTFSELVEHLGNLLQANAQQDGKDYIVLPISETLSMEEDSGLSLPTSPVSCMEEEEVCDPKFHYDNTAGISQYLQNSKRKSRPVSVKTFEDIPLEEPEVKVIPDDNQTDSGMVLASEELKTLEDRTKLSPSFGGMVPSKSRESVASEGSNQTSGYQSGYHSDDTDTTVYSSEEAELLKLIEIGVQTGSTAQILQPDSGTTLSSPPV

[10] = Permeability of the compound assessed as membrane retention by PAMPA; format: ADME
Liver microsomes = test: Metabolic stability of the compound in human liver microsomes assessed as compound remaining; format: ADME, Microsome
Danio rerio = organism: Danio rerio; test: Toxicity in embryos of zebrafish assessed as induction of growth malformation at 0.5 to 2 uM treated 16 hrs post fertilization measured after 24 hrs; format: organism-based; conditions: in vivo
[11] = biological target: Epidermal growth factor receptor (Homo sapiens) (UniProt P00533); test: Inhibition of HER-1 at 10 uM
Sequence of Epidermal growth factor receptor (Homo sapiens) (P00533 whole entry): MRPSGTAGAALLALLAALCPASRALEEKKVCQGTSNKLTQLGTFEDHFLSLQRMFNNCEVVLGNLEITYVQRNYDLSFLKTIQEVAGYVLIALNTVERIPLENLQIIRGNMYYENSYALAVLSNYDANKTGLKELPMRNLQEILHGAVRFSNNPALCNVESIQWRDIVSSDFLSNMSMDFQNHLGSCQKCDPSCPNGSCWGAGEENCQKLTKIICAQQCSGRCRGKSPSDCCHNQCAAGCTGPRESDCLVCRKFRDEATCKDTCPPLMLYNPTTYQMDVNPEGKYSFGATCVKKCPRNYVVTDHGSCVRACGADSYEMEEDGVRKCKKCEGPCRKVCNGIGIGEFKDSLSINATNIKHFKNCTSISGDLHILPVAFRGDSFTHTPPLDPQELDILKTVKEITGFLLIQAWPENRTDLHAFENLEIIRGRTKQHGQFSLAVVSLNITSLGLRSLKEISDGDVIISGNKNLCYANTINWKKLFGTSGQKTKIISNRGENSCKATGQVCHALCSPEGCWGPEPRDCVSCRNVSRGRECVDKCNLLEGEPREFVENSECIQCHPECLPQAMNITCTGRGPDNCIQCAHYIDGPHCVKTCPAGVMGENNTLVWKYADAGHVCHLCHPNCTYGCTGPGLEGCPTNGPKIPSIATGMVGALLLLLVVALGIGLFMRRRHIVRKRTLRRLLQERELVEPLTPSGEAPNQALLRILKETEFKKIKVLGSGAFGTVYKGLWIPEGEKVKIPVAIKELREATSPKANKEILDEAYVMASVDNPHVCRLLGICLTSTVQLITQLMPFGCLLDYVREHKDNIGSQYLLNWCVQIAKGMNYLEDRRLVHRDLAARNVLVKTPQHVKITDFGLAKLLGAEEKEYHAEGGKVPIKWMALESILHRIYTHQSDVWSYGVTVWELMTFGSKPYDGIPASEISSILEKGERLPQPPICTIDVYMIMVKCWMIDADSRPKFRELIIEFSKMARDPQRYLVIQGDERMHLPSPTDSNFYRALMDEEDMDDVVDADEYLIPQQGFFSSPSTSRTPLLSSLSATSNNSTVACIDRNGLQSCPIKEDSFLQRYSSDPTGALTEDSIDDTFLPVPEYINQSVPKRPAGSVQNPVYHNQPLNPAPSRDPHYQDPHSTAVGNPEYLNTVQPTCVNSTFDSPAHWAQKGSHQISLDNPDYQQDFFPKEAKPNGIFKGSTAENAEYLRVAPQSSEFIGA

[12] = biological target: T1, Vascular endothelial growth factor receptor 2; test: Inhibition of VEGFR-2 at 10 uM
[13] = biological target: Receptor-type tyrosine-protein kinase FLT3 (Homo sapiens) (UniProt P36888); test: Inhibition of Flt-3 at 10 uM
[14] = biological target: Insulin-like growth factor 1 receptor (Homo sapiens) (UniProt P08069); test: Inhibition of IGF-1R at 10 uM
Homo sapiens [15] = organism: Homo sapiens; test: Inhibition of PKA at 10 uM
[16] = biological target: Cyclin-dependent kinase 2 (Homo sapiens) (UniProt P24941); test: Inhibition of CDK2A at 10 uM
Homo sapiens [17] = organism: Homo sapiens; test: Inhibition of PKB at 10 uM
[18] = system: Serine/threonine-protein kinase B-raf (Homo sapiens), P15056 [V600E]; test: Inhibition of B-Raf V599E mutant at 10 uM
Sequence of Serine/threonine-protein kinase B-raf (Homo sapiens), P15056 [V600E] (P15056 whole entry V600E): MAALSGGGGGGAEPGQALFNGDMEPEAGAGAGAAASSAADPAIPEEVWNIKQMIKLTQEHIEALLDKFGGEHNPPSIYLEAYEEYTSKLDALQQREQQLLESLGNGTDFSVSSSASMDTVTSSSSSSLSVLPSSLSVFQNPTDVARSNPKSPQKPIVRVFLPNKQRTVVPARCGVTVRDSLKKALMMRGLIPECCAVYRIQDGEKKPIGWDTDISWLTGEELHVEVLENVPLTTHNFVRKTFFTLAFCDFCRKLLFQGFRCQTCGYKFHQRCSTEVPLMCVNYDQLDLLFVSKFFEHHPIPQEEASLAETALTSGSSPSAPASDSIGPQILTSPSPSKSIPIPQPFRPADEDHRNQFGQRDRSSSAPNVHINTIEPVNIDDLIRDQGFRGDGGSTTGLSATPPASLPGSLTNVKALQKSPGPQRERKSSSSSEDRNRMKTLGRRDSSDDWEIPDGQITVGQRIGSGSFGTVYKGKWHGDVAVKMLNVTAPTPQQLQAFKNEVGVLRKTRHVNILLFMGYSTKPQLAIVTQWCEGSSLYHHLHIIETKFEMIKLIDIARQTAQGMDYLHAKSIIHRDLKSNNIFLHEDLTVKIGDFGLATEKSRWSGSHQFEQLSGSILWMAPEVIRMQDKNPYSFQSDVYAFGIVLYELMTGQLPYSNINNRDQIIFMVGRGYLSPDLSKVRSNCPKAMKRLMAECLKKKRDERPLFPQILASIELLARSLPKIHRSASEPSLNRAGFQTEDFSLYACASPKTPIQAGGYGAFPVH

[19] = biological target: Angiopoietin-1 receptor (Homo sapiens) (UniProt Q02763); test: Inhibition of Tek at 10 uM
[20] = biological target: Proto-oncogene tyrosine-protein kinase Src (Homo sapiens) (UniProt P12931); test: Inhibition of Src at 10 uM
Sequence of Proto-oncogene tyrosine-protein kinase Src (Homo sapiens) (P12931 2-536 limits assumed): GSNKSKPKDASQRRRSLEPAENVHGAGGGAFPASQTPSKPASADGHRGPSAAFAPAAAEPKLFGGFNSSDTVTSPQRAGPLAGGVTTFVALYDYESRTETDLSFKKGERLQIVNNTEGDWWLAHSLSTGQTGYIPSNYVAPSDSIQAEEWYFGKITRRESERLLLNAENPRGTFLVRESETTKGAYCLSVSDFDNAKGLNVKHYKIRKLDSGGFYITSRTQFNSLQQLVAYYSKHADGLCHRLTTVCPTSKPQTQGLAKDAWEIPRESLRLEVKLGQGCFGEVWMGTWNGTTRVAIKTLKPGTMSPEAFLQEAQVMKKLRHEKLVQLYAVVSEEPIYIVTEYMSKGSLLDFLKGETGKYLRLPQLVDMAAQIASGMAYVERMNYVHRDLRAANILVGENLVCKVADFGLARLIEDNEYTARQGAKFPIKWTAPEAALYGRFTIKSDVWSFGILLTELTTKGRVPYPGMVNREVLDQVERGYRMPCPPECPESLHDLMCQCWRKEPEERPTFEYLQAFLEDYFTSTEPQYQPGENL

[21] = biological target: Hepatocyte growth factor receptor (Homo sapiens) (UniProt P08581); test: Inhibition of Met at 10 uM
[22] = biological target: Proto-oncogene tyrosine-protein kinase receptor Ret (Homo sapiens) (UniProt P07949); test: Inhibition of Ret at 10 uM
[23] = biological target: Tyrosine-protein kinase JAK2 (Homo sapiens) (UniProt O60674); test: Inhibition of Jak2 at 10 uM
Sequence of Tyrosine-protein kinase JAK2 (Homo sapiens) (O60674 whole entry): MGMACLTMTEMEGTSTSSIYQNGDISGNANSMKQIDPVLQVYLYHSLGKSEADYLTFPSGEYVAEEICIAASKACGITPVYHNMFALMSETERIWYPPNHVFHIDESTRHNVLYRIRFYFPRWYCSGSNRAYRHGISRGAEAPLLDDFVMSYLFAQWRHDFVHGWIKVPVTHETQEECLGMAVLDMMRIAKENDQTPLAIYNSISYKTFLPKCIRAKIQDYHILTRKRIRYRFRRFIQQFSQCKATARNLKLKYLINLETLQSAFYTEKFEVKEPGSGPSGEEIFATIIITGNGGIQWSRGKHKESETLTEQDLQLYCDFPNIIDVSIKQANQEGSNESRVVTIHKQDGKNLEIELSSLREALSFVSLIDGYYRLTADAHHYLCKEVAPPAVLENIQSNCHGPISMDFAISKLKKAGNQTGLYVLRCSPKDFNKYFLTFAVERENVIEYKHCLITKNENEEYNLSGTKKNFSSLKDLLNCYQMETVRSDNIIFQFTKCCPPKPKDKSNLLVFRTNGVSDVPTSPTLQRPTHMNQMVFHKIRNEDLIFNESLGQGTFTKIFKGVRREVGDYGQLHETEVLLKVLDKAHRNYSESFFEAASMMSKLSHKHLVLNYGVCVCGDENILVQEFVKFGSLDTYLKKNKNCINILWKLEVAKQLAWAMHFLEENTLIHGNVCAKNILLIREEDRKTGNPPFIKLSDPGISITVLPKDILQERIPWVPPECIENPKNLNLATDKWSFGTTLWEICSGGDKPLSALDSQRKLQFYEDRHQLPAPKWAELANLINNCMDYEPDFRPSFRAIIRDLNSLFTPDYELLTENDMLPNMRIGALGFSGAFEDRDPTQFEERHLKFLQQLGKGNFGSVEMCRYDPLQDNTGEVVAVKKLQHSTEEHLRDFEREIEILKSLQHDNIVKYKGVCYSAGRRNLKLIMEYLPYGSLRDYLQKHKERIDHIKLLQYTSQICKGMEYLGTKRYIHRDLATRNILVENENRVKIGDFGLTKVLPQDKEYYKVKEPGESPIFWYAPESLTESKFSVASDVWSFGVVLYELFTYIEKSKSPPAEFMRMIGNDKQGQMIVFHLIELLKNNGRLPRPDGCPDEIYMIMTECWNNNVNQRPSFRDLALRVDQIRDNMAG

[24] = biological target: Ephrin type-B receptor 4 (Homo sapiens) (UniProt P54760); test: Inhibition of EphB4 at 10 uM
Homo sapiens [25] = organism: Homo sapiens; test: Inhibition of FGFR3 […] mutant at 10 uM
[26] = biological target: Tyrosine-protein kinase receptor UFO (Homo sapiens) (UniProt P30530); test: Inhibition of Axl at 10 uM
[27] = biological target: Focal adhesion kinase 1 (Homo sapiens) (UniProt Q05397); test: Inhibition of FAK at 10 uM
[28] = biological target: 3-phosphoinositide-dependent protein kinase 1 (Homo sapiens) (UniProt O15530); test: Inhibition of PDK1 at 10 uM
[29] = Apparent permeability of the compound assessed as membrane permeation by PAMPA; format: ADME
[30] = biological target: Proto-oncogene tyrosine-protein kinase Src (Homo sapiens) (UniProt P12931); test: Inhibition of c-Src at 100 uM
[31] = biological target: Tyrosine-protein kinase ABL1 (Homo sapiens, UniProt P00519); test: Inhibition of Abl

SMILES: Cc1cn(-c2cc(NC(=O)c3ccc(C)c(Nc4nccc(-c5cccnc5)n4)c3)cc(C(F)(F)F)c2)cn1
inhibition (HUVEC [1]): Active
inhibition (HUVEC [2]): inactive
inhibition (HUVEC [3]): Active
inhibition (HUVEC [4]): inactive

SMILES: CSc1nc(NCCc2ccccc2)c2cnn(CC(Cl)c3ccccc3)c2n1 (stereo unspecified)
Activity (HUVEC [5]): Toxic

SMILES: Cc1nc(Nc2ncc(C(=O)Nc3c(C)cccc3Cl)s2)cc(N2CCN(CCO)CC2)n1
inhibition (HUVEC [6]): Active
inhibition (HUVEC [3]): Active
inhibition (HUVEC [4]): inactive

SMILES: ClC(Cn1ncc2c(NCc3ccccc3)ncnc21)c1ccccc1 (stereo unspecified)
inhibition (HUVEC [7]): Active
Activity (HUVEC [8]): Non-toxic
IC50 [9]: 1 µM
permeability [10]: 6%
Stability (Liver microsomes): 82%
Activity (Danio rerio): Toxic
inhibition [11]: 56%
inhibition [12]: 29%
inhibition [13]: 13%
inhibition [14]: 0%
inhibition (Homo sapiens [15]): 0%
inhibition [16]: 8%
inhibition (Homo sapiens [17]): 17%
inhibition [18]: 42%
inhibition [19]: 6%
inhibition [20]: 89%
inhibition [21]: 10%
inhibition [22]: 5%
inhibition [23]: 6%
inhibition [24]: 25%
inhibition (Homo sapiens [25]): 0%
inhibition [26]: 8%
inhibition [27]: 0%
inhibition [28]: 0%

SMILES: ClC(Cn1ncc2c(NCCc3ccccc3)nc(SCCN3CCOCC3)nc21)c1ccccc1 (stereo unspecified)
inhibition [30]: inactive

More lines, main results first:

Papp [29]: 3 ×10⁻⁶ cm/s
permeability [10]: 47.7%
Stability (Liver microsomes): 92.5%
SMILES: Clc1cccc(Nc2nc(SCCN3CCOCC3)nc3c2cnn3CC(Cl)c2ccccc2)c1 (stereo unspecified)
inhibition (HUVEC [7]): Active
Activity (HUVEC [8]): Non-toxic
Activity (Danio rerio): Toxic

Ki [31]: 9.75 µM
inhibition [30]: inactive
SMILES: C(=C/n1ncc2c(NCCc3ccccc3)ncnc21)/c1ccccc1
